Common to all, as to type: in vivo
Assay [1] concerns NASH-HCC mouse. The assay is described as follows: Lipid droplet size in hepatocytes, NASH-HCC mouse model (Example 1, Compound 1 with tofogliflozin). The following applies: 3 weeks, control 1.17, not significant vs control. Here is the method:
A NASH-HCC mouse is a model animal that develops liver cirrhosis from fatty liver via NASH when it is fed with a high fat diet, and subsequently develops hepatocellular carcinoma (Non-Patent Document 9). The effect of compound 1 combined with tofogliflozin was examined using the NASH-HCC mouse model. NASH-HCC mice were prepared with reference to Non-Patent Document 9, and were used for this experiment. Specifically, male C57BL/6J mice were subcutaneously administered 200 μg of streptozotocin on the second day after birth. The mice were fed ad libitum with a high-fat diet (HFD-32, Clea Japan, Inc.) for 2 weeks starting from 4-week-old. The mice were separated into four groups as described in below 2) and were administered drugs from 6-week-old to 9-week-old as described in below 3). Daily food consumption of the mice in each group were measured while the drugs were administered so that the mice of all groups were fed with the same amount of food as those for the control group. […] Using the specimens, the lipid droplet size in hepatocyte was analyzed by image analysis software Image J. The area of 6000 to 10,000 lipid droplets was measured in each specimen. The median of the lipid droplet area was calculated for each mouse and then the median and quartile were calculated for each group based on the median for each mouse in the group. […]

The subject of assay [2] is NASH-HCC mouse. The assay is described as follows: Ballooning of hepatocytes score, NASH-HCC mouse model (Example 1, Compound 1 with tofogliflozin). The following applies: 3 weeks, group mean of scores 0-2, control 1.33, not significant vs control. Here is the method:
A NASH-HCC mouse is a model animal that develops liver cirrhosis from fatty liver via NASH when it is fed with a high fat diet, and subsequently develops hepatocellular carcinoma (Non-Patent Document 9). The effect of compound 1 combined with tofogliflozin was examined using the NASH-HCC mouse model. NASH-HCC mice were prepared with reference to Non-Patent Document 9, and were used for this experiment. Specifically, male C57BL/6J mice were subcutaneously administered 200 μg of streptozotocin on the second day after birth. The mice were fed ad libitum with a high-fat diet (HFD-32, Clea Japan, Inc.) for 2 weeks starting from 4-week-old. […] Daily food consumption of the mice in each group were measured while the drugs were administered so that the mice of all groups were fed with the same amount of food as those for the control group. […] Using the specimens, the lipid droplet size in hepatocyte was analyzed by image analysis software Image J. The area of 6000 to 10,000 lipid droplets was measured in each specimen. The median of the lipid droplet area was calculated for each mouse and then the median and quartile were calculated for each group based on the median for each mouse in the group. […] Ballooning of hepatocytes in each mouse was scored under blind conditions according to the following criteria (Kleiner et al., Hepatology 41, 1313-21, 2005). […]

In assay [3] the test system is NASH-HCC mouse. The assay is described as follows: Ballooning of hepatocytes score, NASH-HCC mouse model (Example 2, Compound 1 with ipragliflozin). The note with it: 3 weeks, group mean of scores 0-2, control 1.50, not significant vs control. The method, then: Ballooning of hepatocytes in each mouse was scored under blind conditions according to the following criteria (Kleiner et al., Hepatology 41, 1313-21, 2005). No balloon cells: 0 Balloon cell is rare (Few balloon cells): 1 Many Balloon cells or prominent (Ballooning): 2 Then, the mean value of the scores (ballooning score) was calculated in each group and the values were shown (FIG. 2). Statistical processing was performed using statistical software EZR, which extends the functions of R and R commander. The software is distributed free of charge on the website of Jichi Medical University Saitama Medical Center (Bone Marrow Transplantation (2013) 48, 452-458). The Steel test (N=5 to 7) was performed using EZR, the drug administration group was labeled with the mark * in figures when the group had the significant difference at p<0.05 with respect to the control group, and labeled with the mark ** when the group had the significant difference at p<0.01. The effect of Compound 1 combined with ipragliflozin was examined in NASH-HCC mice (Non-Patent Document 9). NASH-HCC mice were prepared in the same manner as in 1) of Example 1, and were used for this experiment. […]

The mark [4] stands for this setting: 10 mg/kg tofogliflozin, oral once a day.
Where [5] appears, read: 0.1 mg/kg Compound 1, oral once a day.

Three molecules from patent US12042483B2, “Prophylactic and therapeutic drug for nonalcoholic fatty liver disease” (Kowa Company, Ltd., priority 2017, dated 2024) can be followed below.

The structures appear in SMILES notation.

As to `CCc1ccc(Cc2ccc3c(c2)[C@]2(OC3)O[C@H](CO)[C@@H](O)[C@H](O)[C@H]2O)cc1` [tofogliflozin, (1S,3′R,4'S,5'S,6′R)-6-[(4-ethylphenyl)methyl]-6′-(hydroxymethyl)-3′,4′,5′,6′-tetrahydro-3H-spiro[2-benzofuran-1,2′-pyran]-3′,4′,5′-triol], the “median of lipid droplet size” value in the assay with NASH-HCC mouse [1] (setting [4]) turned out to be 1.00 μm^2. In addition, the ballooning score in the assay on NASH-HCC mouse [2] (setting [4]) is 0.71.
Consider `OC[C@H]1O[C@@H](c2ccc(F)c(Cc3cc4ccccc4s3)c2)[C@H](O)[C@@H](O)[C@@H]1O` [ipragliflozin, (1S)-1,5-anhydro-1-C-{3-[(1-benzothiophen-2-yl)methyl]-4-fluorophenyl}-D-glucitol], for which the ballooning score with NASH-HCC mouse [3] (3 mg/kg ipragliflozin, oral once a day) was 0.88.
`CC[C@@H](Oc1cccc(CN(CCCOc2ccc(OC)cc2)c2nc3ccccc3o2)c1)C(=O)O` [Compound 1, (R)-2-[3-[[N-(benzoxazol-2-yl)-N-3-(4-methoxyphenoxy)propyl]aminomethyl]phenoxy]butyric acid]: the “median of lipid droplet size” value with NASH-HCC mouse [1] (setting [5]) is listed as 1.00 μm^2. In addition, the ballooning score is listed as 0.60 in the assay with NASH-HCC mouse [2] (setting [5]) and 1.35 in the assay with NASH-HCC mouse [3] (setting [5]).
